± gives the expanded uncertainty stated by the source.
Assays:
[1] = molar heat capacity at constant pressure; details: 101.33 kPa, Small sample (50 mg) DSC
[2] = Molar enthalpy of transition or fusion; details: DSC
[3] = DTA

COC(=O)Cc1cccs1 [methyl 2-thiopheneacetate]
Details | molar heat capacity at constant pressure [J/K/mol]
[1], 298.15 K, Liquid | 249.8 ± 3.9

O=C(O)Cc1cccs1 [2-thiopheneacetic acid]
Crystal
Details | Molar enthalpy of transition or fusion [kcal/mol] | Normal melting temperature [°C]
[2] | 3.35 ± 0.12 | –
[3] | – | 64.2 ± 0.5

[1], Crystal
Details | molar heat capacity at constant pressure [J/K/mol]
268.15 K | 146.3 ± 2.9
270.15 K | 147.2 ± 2.9
275.15 K | 149.6 ± 3
280.15 K | 150.9 ± 3
285.15 K | 153.4 ± 3.1
290.15 K | 155.2 ± 3.1
295.15 K | 157.6 ± 3.2
298.15 K | 159.2 ± 3.2
300.15 K | 160.3 ± 3.2
305.15 K | 163.9 ± 3.3
310.15 K | 166.1 ± 3.3
315.15 K | 168.5 ± 3.4
320.15 K | 170.5 ± 3.4
325.15 K | 173.6 ± 3.5

COC(=O)Cc1ccsc1 [methyl 3-thiopheneacetate]
Details | molar heat capacity at constant pressure [J/K/mol]
[1], 298.15 K, Liquid | 250.6 ± 4.9

CC(=O)c1cccs1 [2-acetylthiophene]
Details | molar heat capacity at constant pressure [J/K/mol]
[1], 298.15 K, Liquid | 205.7 ± 4.2

O=C(O)Cc1ccsc1 [3-thiopheneacetic acid]
Crystal
Details | Molar enthalpy of transition or fusion [kcal/mol] | Normal melting temperature [°C]
[2] | 4.49 ± 0.143 | –
[3] | – | 80.2 ± 0.5

[1], Crystal
Details | molar heat capacity at constant pressure [J/K/mol]
268.15 K | 151.1 ± 3
270.15 K | 152.6 ± 3.1
275.15 K | 155.6 ± 3.1
280.15 K | 158.5 ± 3.2
285.15 K | 160.8 ± 3.2
290.15 K | 163.6 ± 3.3
295.15 K | 166.6 ± 3.3
298.15 K | 168.4 ± 3.4
300.15 K | 169.8 ± 3.4
305.15 K | 172.7 ± 3.5
310.15 K | 175.3 ± 3.5
315.15 K | 178.8 ± 3.6
320.15 K | 182.7 ± 3.7
325.15 K | 186.8 ± 3.7
330.15 K | 190.6 ± 3.8
335.15 K | 193.9 ± 3.9
340.15 K | 198.7 ± 4

c1csc(-c2cccs2)c1 [2,2'-bithienyl]
Crystal
Details | Molar enthalpy of transition or fusion [kcal/mol] | Normal melting temperature [°C]
[2] | 3.94 ± 0.12 | –
[3] | – | 31.1 ± 0.5

[1], Crystal
Details | molar heat capacity at constant pressure [J/K/mol]
263.15 K | 175.4 ± 3.5
265.15 K | 176.2 ± 3.5
270.15 K | 178.3 ± 3.6
275.15 K | 182.4 ± 3.6
280.15 K | 185.6 ± 3.7
285.15 K | 189.3 ± 3.8
290.15 K | 192.9 ± 3.9
291.15 K | 193.6 ± 3.9
295.15 K | 198.5 ± 4
298.15 K | 205.5 ± 4.1
300.15 K | 218.1 ± 4.4

O=S1(=O)CCCOC1 [1,3-oxathiane-3,3-dioxide]
Crystal
Details | Molar enthalpy of transition or fusion [kcal/mol] | Normal melting temperature [°C]
[2] | 3.63 ± 0.12 | –
[3] | – | 79.8 ± 2

[1], Crystal
Details | molar heat capacity at constant pressure [J/K/mol]
268.15 K | 133.2 ± 2.7
270.15 K | 134.5 ± 2.7
275.15 K | 136.5 ± 2.7
280.15 K | 138.6 ± 2.8
285.15 K | 140.6 ± 2.8
290.15 K | 143.3 ± 2.9
295.15 K | 146.3 ± 2.9
298.15 K | 148.1 ± 3
300.15 K | 149.6 ± 3
305.15 K | 153.8 ± 3.1
310.15 K | 158.6 ± 3.2
315.15 K | 161.5 ± 3.2
320.15 K | 164.8 ± 3.3
325.15 K | 168.3 ± 3.4
330.15 K | 171.7 ± 3.4
335.15 K | 176.3 ± 3.5

CC(=O)c1ccsc1 [3-acetylthiophene]
Crystal
Details | Molar enthalpy of transition or fusion [kcal/mol] | Normal melting temperature [°C]
[2] | 4.52 ± 0.0956 | –
[3] | – | 60.5 ± 0.5

[1], Crystal
Details | molar heat capacity at constant pressure [J/K/mol]
268.15 K | 134 ± 2.7
270.15 K | 134.9 ± 2.7
275.15 K | 136.7 ± 2.7
280.15 K | 138.7 ± 2.8
285.15 K | 140.3 ± 2.8
290.15 K | 142.4 ± 2.8
295.15 K | 145 ± 2.9
298.15 K | 146.1 ± 2.9
300.15 K | 147.5 ± 3

O=S1(=O)CCSCC1 [1,4-dithiane sulfone]
Crystal
Details | Molar enthalpy of transition or fusion [kcal/mol] | Normal melting temperature [°C]
[2] | 6.21 ± 0.0956 | –
[3] | – | 201.1 ± 0.5

[1], Crystal
Details | molar heat capacity at constant pressure [J/K/mol]
268.15 K | 141 ± 2.8
270.15 K | 141.7 ± 2.8
275.15 K | 143.8 ± 2.9
280.15 K | 145.9 ± 2.9
285.15 K | 148.1 ± 3
290.15 K | 149.8 ± 3
295.15 K | 151.8 ± 3
298.15 K | 152.7 ± 3.1
300.15 K | 153.5 ± 3.1
305.15 K | 155.6 ± 3.1
310.15 K | 158.1 ± 3.2
315.15 K | 160.5 ± 3.2
320.15 K | 163 ± 3.3
325.15 K | 165.5 ± 3.3
330.15 K | 167.5 ± 3.4
335.15 K | 168.9 ± 3.4
340.15 K | 171 ± 3.4
345.15 K | 173 ± 3.5
350.15 K | 175.1 ± 3.5
355.15 K | 177.4 ± 3.5
360.15 K | 179.5 ± 3.6
365.15 K | 181.6 ± 3.6
370.15 K | 184.4 ± 3.7
375.15 K | 186.2 ± 3.7
380.15 K | 189.1 ± 3.8
385.15 K | 191.2 ± 3.8
390.15 K | 195.1 ± 3.9
395.15 K | 199.6 ± 4
400.15 K | 203.3 ± 4.1
405.15 K | 205.7 ± 4.1
410.15 K | 209.1 ± 4.2
415.15 K | 212.2 ± 4.2
420.15 K | 215.5 ± 4.3
425.15 K | 218.8 ± 4.4
430.15 K | 222.8 ± 4.5
435.15 K | 226.2 ± 4.5
440.15 K | 230.2 ± 4.6
445.15 K | 234.7 ± 4.7
450.15 K | 239.4 ± 4.8
454.15 K | 243.2 ± 4.9

O=C(O)c1ccc(C(=O)O)s1 [2,5-thiophenedicarboxylic acid]
[1], Crystal
Details | molar heat capacity at constant pressure [J/K/mol]
277.15 K | 161.4 ± 3.2
280.15 K | 162.7 ± 3.3
285.15 K | 163.7 ± 3.3
290.15 K | 164.7 ± 3.3
295.15 K | 166.4 ± 3.3
298.15 K | 167.1 ± 3.3
300.15 K | 167.7 ± 3.4
305.15 K | 169.5 ± 3.4
310.15 K | 171 ± 3.4
315.15 K | 173.1 ± 3.5
320.15 K | 175.1 ± 3.5
325.15 K | 177 ± 3.5
330.15 K | 178.1 ± 3.6
335.15 K | 179.7 ± 3.6
340.15 K | 180.8 ± 3.6
345.15 K | 182.3 ± 3.6
350.15 K | 184 ± 3.7
355.15 K | 186.1 ± 3.7
360.15 K | 186.4 ± 3.7
365.15 K | 190.1 ± 3.8
370.15 K | 192.4 ± 3.8
375.15 K | 194.2 ± 3.9
380.15 K | 196.7 ± 3.9
385.15 K | 198.7 ± 4
390.15 K | 200.9 ± 4
395.15 K | 203.3 ± 4.1
400.15 K | 206.1 ± 4.1
405.15 K | 209.6 ± 4.2
410.15 K | 210.9 ± 4.2
415.15 K | 213.7 ± 4.3
420.15 K | 216.3 ± 4.3
425.15 K | 219.4 ± 4.4
430.15 K | 223.1 ± 4.5
435.15 K | 225.5 ± 4.5
440.15 K | 228.1 ± 4.6
445.15 K | 229.8 ± 4.6

O=S1(=O)CCOCC1 [1,4-oxathiane 4,4-dioxide]
Details | Molar enthalpy of transition or fusion [kcal/mol] | Normal melting temperature [°C]
[2], Crystal 2 | 4.83 ± 0.12 | –
[3], Crystal 1 | – | 130.2 ± 0.4

[1], Crystal 2
Details | molar heat capacity at constant pressure [J/K/mol]
268.15 K | 134.2 ± 2.7
270.15 K | 135.4 ± 2.7
275.15 K | 137.3 ± 2.7
280.15 K | 139.3 ± 2.8
285.15 K | 141.7 ± 2.8
290.15 K | 144.2 ± 2.9
295.15 K | 146.6 ± 2.9
298.15 K | 147.9 ± 3
300.15 K | 148.9 ± 3
305.15 K | 151.2 ± 3
310.15 K | 153.1 ± 3.1
315.15 K | 155.3 ± 3.1
320.15 K | 157.6 ± 3.2
325.15 K | 159.9 ± 3.2
330.15 K | 162 ± 3.2
335.15 K | 164.1 ± 3.3
340.15 K | 166.9 ± 3.3
345.15 K | 170.3 ± 3.4
350.15 K | 172.8 ± 3.5
355.15 K | 175.5 ± 3.5
360.15 K | 177.7 ± 3.6
365.15 K | 180.1 ± 3.6
370.15 K | 182.5 ± 3.7
375.15 K | 185.6 ± 3.7
380.15 K | 188.6 ± 3.8
385.15 K | 191.5 ± 3.8
390.15 K | 194.7 ± 3.9

c1cscn1 [1,3-thiazole]
Details | molar heat capacity at constant pressure [J/K/mol]
[1], 298.15 K, Liquid | 122.1 ± 2.2
